Assay results from patent US4001086A (priority 1976, dated 1977).

Assays:
Cryptococcus neoformans = experiment: standard agar-dilution assay (MIC); assay type: cell-based
Text: Antibiotic A-30641 inhibits the growth of bacteria and fungi which are pathogenic to animal and plant life. The minimal inhibitory concentrations (MIC's) at which antibiotic A-30641 inhibited a variety of organisms, using a standard agar-dilution assay, are summarized in Table III.

C. albicans = experiment: dermal C. albicans infection in rabbits, topical treatment; assay type: in vivo; conditions: 10 days, 1% solution in propylene glycol
Text: Antibiotic A-30641 is particularly useful when administered topically.

SMILES: COC1c2cc(Cl)c(O)cc2ON2C(=O)C3NC(=O)C12SS3 (centres unmarked) [antibiotic A-30641]
- MIC (Cryptococcus neoformans): > 0.156 µg/mL
- lesions caused by a dermal C. albicans infection, severity and size (C. albicans): reduced in severity and size
